Literature values, collected in patent publication US20240246943A1, “MULTIFACETED APPROACH TO NOVEL INTERLEUKIN-6 INHIBITORS” (UNIVERSITY OF FLORIDA RESEARCH FOUNDATION, INCORPORATED, priority 2021, published 2024).

Molecular target: T1, extracellular domain of glycoprotein 130 (gp130) (Homo sapiens, UniProt P40189)
T1 sequence (P40189 23-619 limits assumed): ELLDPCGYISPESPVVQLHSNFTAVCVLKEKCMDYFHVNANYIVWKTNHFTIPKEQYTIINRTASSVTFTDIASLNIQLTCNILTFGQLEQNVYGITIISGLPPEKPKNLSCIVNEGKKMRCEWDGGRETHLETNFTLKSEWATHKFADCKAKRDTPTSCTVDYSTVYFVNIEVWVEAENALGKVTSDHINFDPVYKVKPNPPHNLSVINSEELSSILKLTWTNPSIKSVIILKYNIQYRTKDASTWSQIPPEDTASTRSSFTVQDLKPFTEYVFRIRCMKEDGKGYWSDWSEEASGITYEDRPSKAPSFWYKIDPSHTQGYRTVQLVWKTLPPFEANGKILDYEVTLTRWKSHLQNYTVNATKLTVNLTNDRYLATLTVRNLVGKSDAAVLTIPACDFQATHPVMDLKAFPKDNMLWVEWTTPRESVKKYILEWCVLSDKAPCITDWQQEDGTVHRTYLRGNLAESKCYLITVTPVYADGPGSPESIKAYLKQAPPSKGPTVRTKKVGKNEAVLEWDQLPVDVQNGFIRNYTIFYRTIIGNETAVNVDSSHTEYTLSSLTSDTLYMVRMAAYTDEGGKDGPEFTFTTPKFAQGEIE
Settings: binding to extracellular domain of gp130; literature reference 6; cited from earlier work

In the case of `CCCCC1=C(C)C(=O)[C@](C)(CN2c3ccccc3[C@]3(O)CCOC23)C1=O` (stereo partly shown) [MDL-A, Madindoline A], the Kd is given as 288 µM.
